In ChEMBL document CHEMBL5260852, “Long-Acting Tumor-Activated Prodrug of a TGFβR Inhibitor” (J Med Chem, 2021):
Numbered stars: 1 amine (or outer) side, 2 acyl side, 3 side chain; on linkers, the order of the positions; unused ones are H or OH. Square brackets hold non-standard residues; d marks the D form. Peptide text beside a SMILES is read from it. * marks the point of attachment. X1 = N#Cc1cnc2ccc(-c3c(-c4ccc(F)c(Cl)c4)ncn3CCOCN*)nn12; C18 diacid = O=C(O)CCCCCCCCCCCCCCCCC(=O)*; C16 diacid = O=C(O)CCCCCCCCCCCCCCC(=O)*; γGlu = O=C(O)[C@H](CCC(=O)[*:2])N[*:1]; PABC = O=C(OCc1ccc(N[*:1])cc1)[*:2]; Palmitoyl = CCCCCCCCCCCCCCCC(=O)*; AEEA = NCCOCCOCC(=O)O

What was measured:
[1] = Stability in mouse plasma assessed as parent compound remaining after 24 hrs by HPLC-MS analysis; type: ADME, cell-free; conditions: read-out: Stability
[2] = Drug concentration in C57BL/6 mouse plasma at 6 mg/kg,iv and measured after 24 hrs by LC-MS/MS analysis; type: ADME, organism-based
[3] = Stability in rat plasma assessed as parent compound remaining after 24 hrs by HPLC-MS analysis; type: ADME, cell-free; conditions: read-out: Stability
[4] = AUC in C57BL/6 mouse plasma at 6 mg/kg,iv and measured upto 24 hrs by LC-MS/MS analysis; type: ADME, organism-based; design: dose 6 mg/kg, time < 24 hrs, route iv
[5] = Prodrug conversion in tumor of C57BL/6 mouse xenografted mouse MC38 cells assessed as BMS-986260 Tmax at 8 mg/kg,iv and measured after 48 hrs by LC-MS/MS analysis; type: ADME, organism-based, Neoplasm, MC-38; conditions: in vivo
[6] = Prodrug conversion in tumor of C57BL/6 mouse xenografted mouse MC38 cells assessed as BMS-986260 AUC (0 to 48 hrs) at 8 mg/kg,iv and measured after 48 hrs by LC-MS/MS analysis; type: ADME, organism-based, Neoplasm, MC-38; design: dose 8 mg/kg, time 48 hrs, route iv; conditions: in vivo
[7] = Prodrug conversion in tumor of C57BL/6 mouse xenografted mouse MC38 cells assessed as BMS-986260 Cmax at 8 mg/kg,iv and measured after 48 hrs by LC-MS/MS analysis; type: ADME, organism-based, Neoplasm, MC-38; design: dose 8 mg/kg, time 48 hrs, route iv; conditions: in vivo
[8] = Prodrug conversion in heart of C57BL/6 mouse xenografted mouse MC38 cells assessed as BMS-986260 Cmax at 8 mg/kg,iv and measured after 48 hrs by LC-MS/MS analysis; type: ADME, organism-based, MC-38; design: time 48 hrs, dose 8 mg/kg, route iv; conditions: in vivo
[9] = Prodrug conversion in blood of C57BL/6 mouse xenografted mouse MC38 cells assessed as BMS-986260 Cmax at 8 mg/kg,iv and measured after 48 hrs by LC-MS/MS analysis; type: ADME, organism-based, MC-38; design: time 48 hrs, dose 8 mg/kg, route iv; conditions: in vivo
[10] = Prodrug conversion in C57BL/6 mouse xenografted mouse MC38 cells assessed as BMS-986260 ratio of AUC in tumor to blood at 8 mg/kg,iv and measured after 48 hrs by LC-MS/MS analysis; type: ADME, organism-based, MC-38; conditions: tumour
[11] = Prodrug conversion in C57BL/6 mouse xenografted mouse MC38 cells assessed as BMS-986260 ratio of AUC in tumor to heart at 8 mg/kg,iv and measured after 48 hrs by LC-MS/MS analysis; type: ADME, organism-based, MC-38; conditions: in vivo
[12] = Prodrug conversion in C57BL/6 mouse xenografted mouse MC38 cells assessed as BMS-986260 ratio of AUC in heart to blood at 8 mg/kg,iv and measured after 48 hrs by LC-MS/MS analysis; type: ADME, organism-based, MC-38; conditions: other tissue
[13] = Prodrug conversion in heart of C57BL/6 mouse xenografted mouse MC38 cells assessed as BMS-986260 AUC (0 to 48 hrs) at 8 mg/kg,iv and measured after 48 hrs by LC-MS/MS analysis; type: ADME, organism-based, MC-38; design: time 48 hrs, dose 8 mg/kg, route iv; conditions: in vivo
[14] = Prodrug conversion in blood of C57BL/6 mouse xenografted mouse MC38 cells assessed as BMS-986260 Tmax at 8 mg/kg,iv and measured after 48 hrs by LC-MS/MS analysis; type: ADME, organism-based, MC-38; conditions: in vivo
[15] = Prodrug conversion in heart of C57BL/6 mouse xenografted mouse MC38 cells assessed as BMS-986260 Tmax at 8 mg/kg,iv and measured after 48 hrs by LC-MS/MS analysis; type: ADME, organism-based, MC-38; conditions: in vivo
[16] = Prodrug conversion in blood of C57BL/6 mouse xenografted mouse MC38 cells assessed as BMS-986260 AUC (0 to 48 hrs) at 8 mg/kg,iv and measured after 48 hrs by LC-MS/MS analysis; type: ADME, organism-based, MC-38; design: dose 8 mg/kg, time 48 hrs, route iv; conditions: in vivo
[17] = Prodrug conversion in blood of C57BL/6 mouse xenografted mouse MC38 cells assessed as BMS-986260 AUC (0 to 72 hrs) at 8 mg/kg,iv and measured after 72 hrs by LC-MS/MS analysis; type: ADME, organism-based, MC-38; design: time 72 hrs, dose 8 mg/kg, route iv; conditions: in vivo
[18] = Prodrug conversion in tumor of C57BL/6 mouse xenografted mouse MC38 cells assessed as BMS-986260 Cmax at 8 mg/kg,iv and measured after 72 hrs by LC-MS/MS analysis; type: ADME, organism-based, Neoplasm, MC-38; design: dose 8 mg/kg, time 72 hrs, route iv; conditions: in vivo
[19] = Prodrug conversion in tumor of C57BL/6 mouse xenografted mouse MC38 cells assessed as BMS-986260 Tmax at 8 mg/kg,iv and measured after 72 hrs by LC-MS/MS analysis; type: ADME, organism-based, Neoplasm, MC-38; conditions: in vivo
[20] = Prodrug conversion in blood of C57BL/6 mouse xenografted mouse MC38 cells assessed as BMS-986260 Cmax at 8 mg/kg,iv and measured after 72 hrs by LC-MS/MS analysis; type: ADME, organism-based, MC-38; design: dose 8 mg/kg, time 72 hrs, route iv; conditions: in vivo
[21] = Prodrug conversion in heart of C57BL/6 mouse xenografted mouse MC38 cells assessed as BMS-986260 Cmax at 8 mg/kg,iv and measured after 72 hrs by LC-MS/MS analysis; type: ADME, organism-based, MC-38; design: dose 8 mg/kg, time 72 hrs, route iv; conditions: in vivo
[22] = Prodrug conversion in C57BL/6 mouse xenografted mouse MC38 cells assessed as BMS-986260 ratio of AUC in heart to blood at 8 mg/kg,iv and measured after 72 hrs by LC-MS/MS analysis; type: ADME, organism-based, MC-38; conditions: other tissue
[23] = Prodrug conversion in blood of C57BL/6 mouse xenografted mouse MC38 cells assessed as BMS-986260 ratio of AUC in tumor to heart at 8 mg/kg,iv and measured after 72 hrs by LC-MS/MS analysis; type: ADME, organism-based, MC-38; conditions: in vivo
[24] = Prodrug conversion in blood of C57BL/6 mouse xenografted mouse MC38 cells assessed as BMS-986260 ratio of AUC in tumor to blood at 8 mg/kg,iv and measured after 72 hrs by LC-MS/MS analysis; type: ADME, organism-based, MC-38; conditions: tumour
[25] = Prodrug conversion in heart of C57BL/6 mouse xenografted mouse MC38 cells assessed as BMS-986260 AUC (0 to 72 hrs) at 8 mg/kg,iv and measured after 72 hrs by LC-MS/MS analysis; type: ADME, organism-based, MC-38; design: time 72 hrs, dose 8 mg/kg, route iv; conditions: in vivo
[26] = Prodrug conversion in heart of C57BL/6 mouse xenografted mouse MC38 cells assessed as BMS-986260 Tmax at 8 mg/kg,iv and measured after 72 hrs by LC-MS/MS analysis; type: ADME, organism-based, MC-38; conditions: in vivo
[27] = Prodrug conversion in tumor of C57BL/6 mouse xenografted mouse MC38 cells assessed as BMS-986260 AUC (0 to 72 hrs) at 8 mg/kg,iv and measured after 72 hrs by LC-MS/MS analysis; type: ADME, organism-based, Neoplasm, MC-38; design: time 72 hrs, dose 8 mg/kg, route iv; conditions: in vivo
[28] = Prodrug conversion in blood of C57BL/6 mouse xenografted mouse MC38 cells assessed as BMS-986260 Tmax at 8 mg/kg,iv and measured after 72 hrs by LC-MS/MS analysis; type: ADME, organism-based, MC-38; conditions: in vivo

## CC(=O)N[C@@H](CC(C)C)C(=O)N[C@@H](CO)C(=O)NCC(=O)N[C@@H](CCCCN)C(=O)Nc1ccc(COC(=O)NCOCCn2cnc(-c3ccc(F)c(Cl)c3)c2-c2ccc3ncc(C#N)n3n2)cc1 (Ac-LSGK[PABC]-X1)
[1]
  remaining at 24 h: 6%

## CC(C)C[C@H](NC(=O)COCCOCCNC(=O)COCCOCCNC(=O)CC[C@H](NC(=O)CCCCCCCCCCCCCCC(=O)O)C(=O)O)C(=O)N[C@@H](CO)C(=O)NCC(=O)N[C@@H](CCCCN)C(=O)Nc1ccc(COC(=O)NCOCCn2cnc(-c3ccc(F)c(Cl)c3)c2-c2ccc3ncc(C#N)n3n2)cc1 ({C16 diacid-γGlu-AEEA-AEEA}-LSGK[PABC]-X1)
[1]
  remaining at 24 h: 54%

## CC(C)C[C@H](NC(=O)COCCOCCNC(=O)COCCOCCNC(=O)COCCOCCNC(=O)CC[C@H](NC(=O)CCCCCCCCCCCCCCCCC(=O)O)C(=O)O)C(=O)N[C@@H](CO)C(=O)NCC(=O)N[C@@H](CCCCN)C(=O)Nc1ccc(COC(=O)NCOCCn2cnc(-c3ccc(F)c(Cl)c3)c2-c2ccc3ncc(C#N)n3n2)cc1 ({C18 diacid-γGlu-AEEA-AEEA-AEEA}-LSGK[PABC]-X1)
[2]
  concentration at 24 h: 5.2 µM
[1]
  remaining at 24 h: 91%
[3]
  remaining at 24 h: 76%
[4]
  AUC at 24 h: 270 µM·h

## CC(C)C[C@H](NC(=O)COCCOCCNC(=O)COCCOCCNC(=O)CC[C@H](NC(=O)CCCCCCCCCCCCCCCCC(=O)O)C(=O)O)C(=O)N[C@@H](CO)C(=O)NCC(=O)N[C@@H](CCCCN)C(=O)Nc1ccc(COC(=O)NCOCCn2cnc(-c3ccc(F)c(Cl)c3)c2-c2ccc3ncc(C#N)n3n2)cc1 ({C18 diacid-γGlu-AEEA-AEEA}-LSGK[PABC]-X1)
[5]
  Tmax: 1 h
[6]
  AUC: 6.6 µM·h
[2]
  concentration at 24 h: > 1 µM
[7]
  Cmax: 470 nM
[8]
  Cmax: 300 nM
[9]
  Cmax: 160 nM
[10]
  Ratio AUC: 2.2
[11]
  Ratio AUC: 1.2
[12]
  Ratio AUC: 1.8
[1]
  remaining at 24 h: 79%
[13]
  AUC: 5.4 µM·h
[14]
  Tmax: 4 h
[15]
  Tmax: 8 h
[3]
  remaining at 24 h: 84%
[16]
  AUC: 3 µM·h
[4]
  AUC at 24 h: 348 µM·h

## CC(C)C[C@H](NC(=O)COCCOCCNC(=O)CC[C@H](NC(=O)CCCCCCCCCCCCCCCCC(=O)O)C(=O)O)C(=O)N[C@@H](CO)C(=O)NCC(=O)N[C@@H](CCCCN)C(=O)Nc1ccc(COC(=O)NCOCCn2cnc(-c3ccc(F)c(Cl)c3)c2-c2ccc3ncc(C#N)n3n2)cc1 ({C18 diacid-γGlu-AEEA}-LSGK[PABC]-X1)
[2]
  concentration at 24 h: > 1 µM
[1]
  remaining at 24 h: 79%
[3]
  remaining at 24 h: 81%

## CC(C)C[C@H](NC(=O)COCCOCCNC(=O)COCCOCCNC(=O)CC[C@H](NC(=O)CC[C@H](NC(=O)CC[C@H](NC(=O)CCCCCCCCCCCCCCCCC(=O)O)C(=O)O)C(=O)O)C(=O)O)C(=O)N[C@@H](CO)C(=O)NCC(=O)N[C@@H](CCCCN)C(=O)Nc1ccc(COC(=O)NCOCCn2cnc(-c3ccc(F)c(Cl)c3)c2-c2ccc3ncc(C#N)n3n2)cc1 ({C18 diacid-γGlu-γGlu-γGlu-AEEA-AEEA}-LSGK[PABC]-X1)
[2]
  concentration at 24 h: 5.2 µM
[17]
  AUC: 4.6 µM·h
[18]
  Cmax: 310 nM
[19]
  Tmax: 8 h
[20]
  Cmax: 140 nM
[1]
  remaining at 24 h: 96%
[21]
  Cmax: 270 nM
[22]
  Ratio AUC: 1.8
[23]
  Ratio AUC: 1.6
[24]
  Ratio AUC: 2.8
[25]
  AUC: 8.4 µM·h
[26]
  Tmax: 8 h
[3]
  remaining at 24 h: 93%
[27]
  AUC: 13 µM·h
[28]
  Tmax: 1 h
[4]
  AUC at 24 h: 270 µM·h

## CC(C)C[C@H](NC(=O)CC[C@H](NC(=O)CCCCCCCCCCCCCCCCC(=O)O)C(=O)O)C(=O)N[C@@H](CO)C(=O)NCC(=O)N[C@@H](CCCCN)C(=O)Nc1ccc(COC(=O)NCOCCn2cnc(-c3ccc(F)c(Cl)c3)c2-c2ccc3ncc(C#N)n3n2)cc1 ({C18 diacid-γGlu}-LSGK[PABC]-X1)
[2]
  concentration at 24 h: > 1 µM
[1]
  remaining at 24 h: 84%
[3]
  remaining at 24 h: 77%

## CCCCCCCCCCCCCCCC(=O)N[C@@H](CCC(=O)N[C@@H](CC(C)C)C(=O)N[C@@H](CO)C(=O)NCC(=O)N[C@@H](CCCCN)C(=O)Nc1ccc(COC(=O)NCOCCn2cnc(-c3ccc(F)c(Cl)c3)c2-c2ccc3ncc(C#N)n3n2)cc1)C(=O)O ({Palmitoyl-γGlu}-LSGK[PABC]-X1)
[4]
  AUC at 24 h: 40.9 µM·h
